Experimental data from publication PMC7674646, “Structural and Functional Analyses of the Transcription Repressor DgoR From Escherichia coli Reveal a Divalent Metal-Containing D-Galactonate Binding Pocket” (Frontiers in Microbiology, 2020).
Several values for one entry are separate records, joined by “and”; a condition that tells them apart may be missing. Equal entries are not always repeated.

Legend:
[1] = molecular target: EcoDgoR W181A / dgo cis-acting element (Escherichia coli, UniProt P31460, W181A); assay: EMSA of EcoDgoR W181A with dgo cis-acting element; type: biochemical; conditions: presence vs absence of 0.5 mM D-galactonate
Chain of EcoDgoR W181A / dgo cis-acting element (P31460 whole entry W181A): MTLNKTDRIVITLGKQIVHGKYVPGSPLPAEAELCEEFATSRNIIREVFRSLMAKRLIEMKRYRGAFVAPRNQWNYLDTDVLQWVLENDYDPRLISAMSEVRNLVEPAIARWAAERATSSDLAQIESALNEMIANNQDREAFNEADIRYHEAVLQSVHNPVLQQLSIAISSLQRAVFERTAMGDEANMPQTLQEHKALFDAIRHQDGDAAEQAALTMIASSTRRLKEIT
Text: (§1) For expression of the recombinant DgoR mutants (i.e., R102A, D146A, H150A, Q173A, R179A, W181A, D184A, T191A, H195A, S221A, R224A, and R224E), the wild-type E. coli dgoR gene on the expression plasmid pET28a was mutated using the site-directed mutagenesis method. The dgo cis-acting element region of E. coli K12 was generated by PCR and subsequently inserted into the HincII site of pUC18. The obtained plasmid was used as the template for preparation of the Cy5-labeled probes using the universal primer pair of Cy5-labeled dgoRcis-acting_F and dgoRcis-acting_R. Cy5-labeled probe (100 ng) was incubated with different amounts of dgoR or its mutants at 25°C for 20 min in a buffer comprising of 25 mM Tris-HCl (pH 8.0), 50 mM KCl, 2.5 mM MgCl2, 5% glycerol, 1 mM dithiothreitol (DTT), and 100 μg/mL sonicated salmon sperm DNA (Sangon) (total volume 20 μl). The resulting DNA-protein complexes were subjected to electrophoresis on native PAGE gels at 100 V, 4°C for 2.5 h in a running buffer containing 25 mM Tris-HCl (pH 7.8) and 250 mM glycine. After electrophoresis, gels were directly scanned for fluorescent DNAs using an ImageQuantTM LAS 4000 system (GE Healthcare). For EMSAs in the presence or absence of D-galactonate or D-glucose, 0.5 mM D-galactonate or D-glucose was applied.

[2] = molecular target: EcoDgoR D184A / dgo cis-acting element (Escherichia coli, UniProt P31460, D184A); assay: EMSA of EcoDgoR D184A with dgo cis-acting element; type: biochemical; conditions: D184A 8 μM, 0.5 mM D-galactonate
Chain of EcoDgoR D184A / dgo cis-acting element (P31460 whole entry D184A): as the sequence (P31460 whole entry W181A) above, with A181W, D184A counted along it
Text: as §1

[3] = molecular target: EcoDgoR H150A / dgo cis-acting element (Escherichia coli, UniProt P31460, H150A); assay: EMSA of EcoDgoR H150A with dgo cis-acting element; type: biochemical; conditions: 0.5 mM D-galactonate
Chain of EcoDgoR H150A / dgo cis-acting element (P31460 whole entry H150A): as the sequence (P31460 whole entry W181A) above, with H150A, A181W counted along it
Text: as §1

[4] = molecular target: EcoDgoR R102A / dgo cis-acting element (Escherichia coli, UniProt P31460, R102A); assay: EMSA of EcoDgoR R102A with dgo cis-acting element; type: biochemical; conditions: R102A 8 μM, 0.5 mM D-galactonate
Chain of EcoDgoR R102A / dgo cis-acting element (P31460 whole entry R102A): as the sequence (P31460 whole entry W181A) above, with R102A, A181W counted along it
Text: as §1

EcoDgoR R224A = EcoDgoR R224A (Escherichia coli, UniProt P31460, R224A); assay: MST binding assay, EcoDgoR R224A mutant
Chain of EcoDgoR R224A (P31460 whole entry R224A): as the sequence (P31460 whole entry W181A) above, with A181W, R224A counted along it
Procedure: (§2) His-tagged DgoR and its derivatives were labeled with the NT-647-NHS dye using the Monolith NT^TM Protein Labeling Kit RED-NHS (NanoTemper Technologies) ([Magnez et al., 2017]; [Welsch et al., 2017]). Serially diluted unlabeled proteins and 100 nM of labeled DgoR or its derivatives were incubated for 15 min at room temperature in binding buffer (1.8 mM KH2PO4, 10 mM Na2HPO4, 137 mM NaCl, 2.7 mM KCl, and 0.05% Tween-20, pH 7.8) in a final volume of 20 μL. Subsequently, samples were loaded into NT.115 premium coated capillaries (NanoTemper Technologies). Binding experiments were performed using a Monolith NT.115 Pico apparatus (NanoTemper Technologies) with the following parameters: LED power 5 %, MST Power high. MST traces were analyzed between 4.00 and 5.00 s after turning on the IR-Laser. Measurements were carried out with D-galactonate. For each experiment, the unlabeled proteins were produced from independent preparations. Results were obtained with the MO Control software version 1.6. MO Affinity Analysis software version 2.3 was used to determine the fraction of the formed complex. Apparent dissociation constants (Kd) were calculated using nonlinear fitting assuming one specific binding site with the GraphPad Prism 7 software with the following formula
(§3) (whereBisMaxthemaximumtheoreticalspecificbinding,hereB=Max1).

EcoDgoR W181A = EcoDgoR W181A (Escherichia coli, UniProt P31460, W181A); assay: MST binding assay, EcoDgoR W181A mutant
Chain of EcoDgoR W181A (P31460 whole entry W181A): as the sequence (P31460 whole entry W181A) above
Procedure: as §2, §3

[5] = molecular target: EcoDgoR R224E / dgo cis-acting element (Escherichia coli, UniProt P31460, R224E); assay: EMSA of EcoDgoR R224E with dgo cis-acting element; type: biochemical; conditions: 0.5 mM D-galactonate
Chain of EcoDgoR R224E / dgo cis-acting element (P31460 whole entry R224E): as the sequence (P31460 whole entry W181A) above, with A181W, R224E counted along it
Text: as §1

EcoDgoR R102A = EcoDgoR R102A (Escherichia coli, UniProt P31460, R102A); assay: MST binding assay, EcoDgoR R102A mutant
Chain of EcoDgoR R102A (P31460 whole entry R102A): as the sequence (P31460 whole entry W181A) above, with R102A, A181W counted along it
Procedure: as §2, §3

[6] = molecular target: EcoDgoR D146A / dgo cis-acting element (Escherichia coli, UniProt P31460, D146A); assay: EMSA of EcoDgoR D146A with dgo cis-acting element; type: biochemical; conditions: supplementation of D-galactonate
Chain of EcoDgoR D146A / dgo cis-acting element (P31460 whole entry D146A): as the sequence (P31460 whole entry W181A) above, with D146A, A181W counted along it
Text: as §1

[7] = molecular target: EcoDgoR Q173A / dgo cis-acting element (Escherichia coli, UniProt P31460, Q173A); assay: EMSA of EcoDgoR Q173A with dgo cis-acting element; type: biochemical; conditions: Q173A 8 μM, 0.5 mM D-galactonate
Chain of EcoDgoR Q173A / dgo cis-acting element (P31460 whole entry Q173A): as the sequence (P31460 whole entry W181A) above, with Q173A, A181W counted along it
Text: as §1

[8] = molecular target: EcoDgoR / dgo cis-acting element (Escherichia coli, UniProt P31460); assay: EMSA of WT EcoDgoR with dgo cis-acting element; type: biochemical; conditions: for effect on stability of EcoDgoR/DNA complex (EMSA): EDTA-treated EcoDgoR, 0.5 mM sugar plus divalent metal cation (Zn2+, Ca2+ or Mg2+); for effect on EcoDgoR/DNA complex (EMSA): EcoDgoR pre-incubated with 5 mM EDTA, sugar alone (0.5 mM), no metal added; for effect on DNA bound by EcoDgoR (EMSA): WT EcoDgoR, 0.5 mM sugar
Chain of EcoDgoR / dgo cis-acting element (P31460 whole entry): as the sequence (P31460 whole entry W181A) above, with A181W counted along it
Text: as §1

[9] = molecular target: EcoDgoR H195A / dgo cis-acting element (Escherichia coli, UniProt P31460, H195A); assay: EMSA of EcoDgoR H195A with dgo cis-acting element; type: biochemical; conditions: 0.5 mM D-galactonate
Chain of EcoDgoR H195A / dgo cis-acting element (P31460 whole entry H195A): as the sequence (P31460 whole entry W181A) above, with A181W, H195A counted along it
Text: as §1

[10] = molecular target: EcoDgoR R224A / dgo cis-acting element (Escherichia coli, UniProt P31460, R224A); assay: EMSA of EcoDgoR R224A with dgo cis-acting element; type: biochemical; conditions: 0.5 mM D-galactonate
Chain of EcoDgoR R224A / dgo cis-acting element (P31460 whole entry R224A): as the sequence (P31460 whole entry W181A) above, with A181W, R224A counted along it
Text: as §1

EcoDgoR H150A = EcoDgoR H150A (Escherichia coli, UniProt P31460, H150A); assay: MST binding assay, EcoDgoR H150A mutant
Chain of EcoDgoR H150A (P31460 whole entry H150A): as the sequence (P31460 whole entry W181A) above, with H150A, A181W counted along it
Procedure: as §2, §3

[11] = molecular target: EcoDgoR S221A / dgo cis-acting element (Escherichia coli, UniProt P31460, S221A); assay: EMSA of EcoDgoR S221A with dgo cis-acting element; type: biochemical; conditions: supplementation of D-galactonate
Chain of EcoDgoR S221A / dgo cis-acting element (P31460 whole entry S221A): as the sequence (P31460 whole entry W181A) above, with A181W, S221A counted along it
Text: as §1

WT-EcoDgoR = WT-EcoDgoR (Escherichia coli, UniProt P31460); assay: MST binding assay, D-galactonate to wild-type EcoDgoR
Chain of WT-EcoDgoR (P31460 whole entry): as the sequence (P31460 whole entry W181A) above, with A181W counted along it
Procedure: as §2, §3

EcoDgoR T191A = EcoDgoR T191A (Escherichia coli, UniProt P31460, T191A); assay: MST binding assay, EcoDgoR T191A mutant
Chain of EcoDgoR T191A (P31460 whole entry T191A): as the sequence (P31460 whole entry W181A) above, with A181W, T191A counted along it
Procedure: as §2, §3

[12] = molecular target: EcoDgoR R179A / dgo cis-acting element (Escherichia coli, UniProt P31460, R179A); assay: EMSA of EcoDgoR R179A with dgo cis-acting element; type: biochemical; conditions: presence vs absence of 0.5 mM D-galactonate
Chain of EcoDgoR R179A / dgo cis-acting element (P31460 whole entry R179A): as the sequence (P31460 whole entry W181A) above, with R179A, A181W counted along it
Text: as §1

[13] = molecular target: EcoDgoR T191A / dgo cis-acting element (Escherichia coli, UniProt P31460, T191A); assay: EMSA of EcoDgoR T191A with dgo cis-acting element; type: biochemical; conditions: T191A 8 μM, 0.5 mM D-galactonate
Chain of EcoDgoR T191A / dgo cis-acting element (P31460 whole entry T191A): as the sequence (P31460 whole entry W181A) above, with A181W, T191A counted along it
Text: as §1

O=C(O)[C@H](O)[C@@H](O)[C@@H](O)[C@H](O)CO [D-galactonate]
effect on DNA binding of mutant (EMSA) [1]: no significant difference in DNA binding affinity | effect on DNA binding of mutant (EMSA) [2]: restored their DNA binding ability to some extent | effect on DNA binding of mutant (EMSA) [3]: remain inability to bind DNA | effect on DNA binding of mutant (EMSA) [4]: restored their DNA binding ability to some extent | Kd (EcoDgoR R224A): > 50 mM | interaction with D-galactonate (MST) (EcoDgoR R224A; R224A mutant): did not interact | Kd (EcoDgoR W181A): > 50 mM | interaction with D-galactonate (MST) (EcoDgoR W181A; W181A mutant): did not interact | effect on DNA binding of mutant (EMSA) [5]: remain inability to bind DNA | Kd (EcoDgoR R102A): > 50 mM | interaction with D-galactonate (MST) (EcoDgoR R102A; R102A mutant): did not interact | effect on DNA binding of mutant (EMSA) [6]: slightly decreased their ability to bind DNA | effect on DNA binding of mutant (EMSA) [7]: restored their DNA binding ability to some extent | effect on stability of EcoDgoR/DNA complex (EMSA) [8]: decreased the stability of EcoDgoR/DNA complex | effect on EcoDgoR/DNA complex (EMSA) [8]: didn’t disrupt the formation of stable protein/DNA complexes | effect on DNA bound by EcoDgoR (EMSA) [8]: relieved DNA bound by EcoDgoR in a concentration-dependent manner | effect on DNA binding of mutant (EMSA) [9]: remain inability to bind DNA | effect on DNA binding of mutant (EMSA) [10]: remain inability to bind DNA | Kd (EcoDgoR H150A): 4.99 ± 1.02 mM | effect on DNA binding of mutant (EMSA) [11]: slightly decreased their ability to bind DNA | Kd (WT-EcoDgoR; WT EcoDgoR 100 nM, D-galactonate 305 nM to 10 mM): ~0.22 mM and 0.22 mM | Kd (WT-EcoDgoR; WT EcoDgoR after EDTA incubation): 30 ± 20.3 mM | Kd (EcoDgoR T191A): > 50 mM | interaction with D-galactonate (MST) (EcoDgoR T191A; T191A mutant): did not interact | effect on DNA binding of mutant (EMSA) [12]: no significant difference in DNA binding affinity | effect on DNA binding of mutant (EMSA) [13]: restored their DNA binding ability to some extent

OC[C@H]1OC(O)[C@H](O)[C@@H](O)[C@@H]1O (stereo partly drawn) [D-glucose]
effect on stability of EcoDgoR/DNA complex (EMSA) [8]: not affected significantly | effect on EcoDgoR/DNA complex (EMSA) [8]: didn’t disrupt the formation of stable protein/DNA complexes | effect on DNA bound by EcoDgoR (EMSA) [8]: did not display such effect
